Test results published in patent publication US9950067B2, “Trans carotenoids, their synthesis, formulation and uses” (Diffusion Pharmaceuticals, LLC, priority 2005, dated 2018).
Several values for one entry are separate records, joined by “and”; a condition that tells them apart may be missing. Identical values can stand only once. Entries after “also recorded” stand apart in the source; their conditions may differ. Like-named read-outs stand apart in the source and are kept apart here. One block for each compound: values may come before it.

Columns and labels:
[1] = Solubility in water and aqueous formulations; assay type: physicochemical
Method: Formulation of TSC with Cyclodextrin-Mannitol • 1. Make up a solution containing equal-molar concentrations of the cyclodextrin and the TSC. Solutions containing over 20 mg TSC/ml of solution can be made this way. First, add the cyclodextrin to an injectable water, then add the TSC to that solution. • 2. Add d-mannitol, so that the final concentration is around 20 to 50 mg/ml of mannitol in solution. • 3. This solution can be added to isotonic saline in order to dilute it and still maintain the proper osmolality. Either add the solution to saline or add saline to the solution.
Formulation of TSC with Mannitol/Acetic Acid • 1. Make up a 0.01 M acetic acid solution in distilled water. • 2. […] Add the 0.0005 M acetic acid solution, slowly, to TSC. […] Add d-mannitol to above solution at a concentration of 50 mg/ml in order to obtain the proper osmolality. The pH of this solution is around 8 to 8.5. It should be close to being an isotonic solution, and, as such, can be injected directly into the blood stream.

[2] = Pulmonary administration, absorption into the blood stream; assay type: in vivo, rats
Method: In this method, the rats were intubated and a small volume (0.1 mL usually) of the TSC solution was injected followed by two 3-mL puffs of air.
Additional studies have been done with pulmonary dosing in which the effect of the volume of liquid injected into the trachea as well as using TSC in its formulated drug product form were investigated. The formulated drug product contained 8% γ-cyclodextrin, 2.3% mannitol and 50 mM glycine and 20 mg/mL TSC, reconstituted in sterile water. Sterile saline (0.9%) was added as a diluent in these studies in order to achieve the desired dosages. The same dose (937 μg/kg) was administered to all rats.

[3] = Intramuscular administration, absorption into the blood stream; assay type: in vivo, rats
Method: TSC is not absorbed via an intramuscular route when simply dissolved in de-ionized water; however, the addition of a cyclodextrin (as in the formulated drug product) results in absorption into the blood stream. Small volumes (0.05 mL) were injected into each thigh muscle of rats with TSC formulated with 2-hydroxypropyl-β-cyclodextrin or γ-cyclodextrin and dissolved in water.

[4] = Oral administration, plasma concentrations; assay type: in vivo, rats; conditions: with γ-cyclodextrin
Method: PE-50 tubing was used to deliver formulated TSC into the stomachs of rats, and plasma concentrations were measured after that. Rats were fasted for 24 hours prior to each experiment. Water was given ad libitum and coprophagy was prevented by using cages with wire-mesh floors. One study involved rats that were allowed food ad libitum after TSC administration and another study involved rats in which food was withheld after TSC administration.

[5] = tested on: rats subjected to hemorrhagic shock; assay: Treatment of hemorrhagic shock; assay type: in vivo; conditions: for treatment of hemorrhagic shock: rats
[6] = Preclinical study of myocardial infarction; assay type: in vivo; conditions: injected intravenously
[7] = Stability of TSC in formulation versus pH; conditions: aqueous formulation
[8] = tested on: HCT116 human colon carcinoma tumors; assay: Radiation sensitization of tumors grown on mice
Method: There were six study groups of five mice per group (for a total of 30 mice) designated Study Groups 1 through 6. All mice in the study were injected intravenously with either a TSC dose or a saline control for five successive days. As shown below, Study Groups 1, 2 and 3 received TSC doses A, B and C, which corresponds to 0.07, 0.14 and 0.28 mg/kg respectively for the study B, and 1.35, 0.54 and 0.18 mg/kg respectively for the study A.
Group 4 was injected as a saline control. At 45 minutes post-injection on each of the five successive days, the tumors of Study Groups 1-4 received 2 Gy irradiation. Study Group 5 received TSC only and Study Group 6 received saline only, and neither Study Group 5 nor 6 received irradiation. Tumor volumes in all Study Groups were measured weekly for the earlier of 4 weeks or until the tumors reached 4 times the volume at the start of treatment.

[9] = natural bipolar carotenoids, background; cited from earlier work
[10] = pulmonary, formulated drug product, 937 μg/kg

- solubility ([1]; in water and in THF): poorly soluble
Structure (SMILES): CCOC(=O)/C(C)=C/C=C/C(C)=C/C=C/C=C(C)/C=C/C=C(\C)C(=O)OCC [Compound E, Diethyl 2,6,11,15-Tetramethyl-hexadeca-2E,4E,6E,8E,10E,12E,14E-heptaene-1,16-diotate]

Structure (SMILES): CC(/C=C/C=C(\C)C(=O)[O-])=C\C=C\C=C(C)\C=C\C=C(/C)C(=O)[O-].[Na+].[Na+] [TSC, trans sodium crocetinate]
- solubility ([1]; 0.0005 M acetic acid solution, aqueous buffer, thermodynamic from solid, read-out: Maximum solubility): 6000 to 6500 µg/mL
- dissolution in acetic acid ([1]; 0.001 M acetic acid): doesn't dissolve
- TSC content of aqueous solution ([1]; TSC and gamma-cyclodextrin): ≤ 44 milligrams of TSC per ml of solution
- TSC content of solution ([1]; formulated with cyclodextrin and mannitol): over 20 mg TSC/ml of solution
- solubility in water ([1]; water): soluble in water
- pulmonary absorption without cyclodextrin ([2]; TSC in pH'd di-water): successful absorption into the blood stream
- effect of larger injection volume of the same dose on bioavailability ([2]; pulmonary, 937 μg/kg): greater bioavailability
- effect of γ-cyclodextrin on absorption into the systemic circulation [2, 10]: enhances absorption
- effect of γ-cyclodextrin on plasma clearance [2, 10]: increasing plasma clearance
- time to reach the maximum plasma concentration ([2]; rats, pulmonary): < 5 min
- bioavailability ([3]; rat, plasma, im, 3347 μg/kg body weight, rats, intramuscular 3347 μg/kg with 14 mg 2-hydroxypropyl-β-cyclodextrin per kg): 27%
- peak plasma TSC concentration ([3]; rats, intramuscular 3347 μg/kg with 14 mg 2-hydroxypropyl-β-cyclodextrin per kg): 4.8 µg/mL
- absorption via intramuscular route ([3]; simply dissolved in de-ionized water): not absorbed
- absorption via intramuscular route ([3]; with γ-cyclodextrin): successful absorption into the systemic circulation; also recorded: absorbed into the blood stream
- effect of γ-cyclodextrin on oral absorption [4]: enhances absorption
- effect on tachycardia ([5]; rats subjected to hemorrhagic shock): reduce tachycardia
- treatment of hemorrhagic shock ([5]; intramuscular injection): successfully treated
- treatment of hemorrhagic shock ([5]; pulmonary route): successfully treated
- effect on ventricular fibrillation [6]: prevented ventricular fibrillation
- stability versus pH [7]: more stable at higher pHs
- optimal dosage ([8]; Study A, i.v. 5 days, 2 Gy irradiation 45 minutes post-injection): 0.18 mg/kg
- dosages that worked equally well ([8]; Study B, i.v. 5 days, 2 Gy irradiation 45 minutes post-injection): 0.07 mg/kg and 0.14 mg/kg
- effect on tumor growth ([8]; TSC alone, no irradiation, FIG. 3): does not appreciably affect tumor growth

Structure (SMILES): CC(/C=C/C=C(\C)C(=O)O)=C\C=C\C=C(C)\C=C\C=C(/C)C(=O)O [crocetin]
- solubility in water [9]: only sparingly soluble in water

Structure (SMILES): CC(/C=C/C=C(\C)C(=O)O[C@@H]1O[C@H](CO[C@@H]2O[C@H](CO)[C@@H](O)[C@H](O)[C@H]2O)[C@@H](O)[C@H](O)[C@H]1O)=C\C=C\C=C(C)\C=C\C=C(/C)C(=O)O[C@@H]1O[C@H](CO[C@@H]2O[C@H](CO)[C@@H](O)[C@H](O)[C@H]2O)[C@@H](O)[C@H](O)[C@H]1O [crocin]
- solubility in water [9]: significant solubility in water
